# Reference: ChEMBL document CHEMBL1140777, “3,4-Diamino-2,5-thiadiazole-1-oxides as potent CXCR2/CXCR1 antagonists” (Bioorg Med Chem Lett, 2008)
# Experiments:
# [1] = biological target: T1, C-X-C chemokine receptor type 1 (Homo sapiens, UniProt P25024); test: Binding affinity to CXCR1
# T1 sequence (P25024 whole entry): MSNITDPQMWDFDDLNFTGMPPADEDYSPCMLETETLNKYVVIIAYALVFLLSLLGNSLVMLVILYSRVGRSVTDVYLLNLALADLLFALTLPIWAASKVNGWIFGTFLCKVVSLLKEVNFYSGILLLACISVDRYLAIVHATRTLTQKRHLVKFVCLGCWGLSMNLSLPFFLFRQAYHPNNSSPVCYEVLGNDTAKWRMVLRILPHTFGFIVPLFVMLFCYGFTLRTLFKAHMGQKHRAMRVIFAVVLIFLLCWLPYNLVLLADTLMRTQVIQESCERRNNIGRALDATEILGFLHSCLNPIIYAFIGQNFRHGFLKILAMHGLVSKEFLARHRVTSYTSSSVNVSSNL
# [2] = biological target: T2, C-X-C chemokine receptor type 2 (Homo sapiens, UniProt P25025); test: Binding affinity to CXCR2
# T2 sequence (P25025 whole entry): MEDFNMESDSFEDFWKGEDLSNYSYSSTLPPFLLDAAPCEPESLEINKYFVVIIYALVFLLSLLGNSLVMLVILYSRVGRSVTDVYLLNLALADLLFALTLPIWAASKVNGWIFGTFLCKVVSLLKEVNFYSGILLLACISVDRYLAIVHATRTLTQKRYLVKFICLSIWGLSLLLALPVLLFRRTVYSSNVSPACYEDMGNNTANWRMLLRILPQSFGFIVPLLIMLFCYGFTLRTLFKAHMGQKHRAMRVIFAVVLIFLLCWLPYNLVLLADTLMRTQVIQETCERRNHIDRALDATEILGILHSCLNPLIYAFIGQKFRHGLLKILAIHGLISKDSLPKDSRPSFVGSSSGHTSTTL
# [3] = biological target: Interleukin-8 receptors, CXCR1/CXCR2 (Homo sapiens) (UniProt P25025+P25024); test: Antagonist activity at CXCR1/CXCR2 in human PMN cells assessed as inhibition of GROalpha-mediated myeloperoxidase release at 1 uM; type: functional, cell-based; set-up: scale not given: the % may be the effect or the level left
# [4] = Drug level in po dosed rat blood; type: ADME, organism-based; conditions: read-out: Activity
# [5] = biological target: T3, Interleukin-8 receptors, CXCR1/CXCR2 (Homo sapiens, UniProt P25025+P25024); test: Antagonist activity at CXCR1/CXCR2 in human PMN cells assessed as inhibition of IL8-mediated myeloperoxidase release; type: functional, cell-based
# T3 sequence (P25025 whole entry): T2 sequence (P25025 whole entry)
# T3 sequence (P25024 whole entry): T1 sequence (P25024 whole entry)
# [6] = biological target: T3, Interleukin-8 receptors, CXCR1/CXCR2; test: Antagonist activity at CXCR1/CXCR2 in human PMN cells assessed as inhibition of GROalpha-mediated myeloperoxidase release; type: functional, cell-based
Ki [1],Ki [2],Activity [3],AUC [4],IC50 [5],IC50 [6],SMILES
129 nM,9 nM,,,,,CN(C)C(=O)c1cccc(NC2=NS(=O)(=O)N=C2N[C@@H](c2ccc(Cl)o2)C(C)(C)C)c1O
8990 nM,,-39%,2.3 µM·h,8990 nM,,CC[C@@H](NC1=NS(=O)(=O)N=C1Nc1cccc(C(=O)N(C)C)c1O)c1ccccc1
652 nM,11 nM,,,,,CC(C)[C@@H](NC1=NS(=O)(=O)N=C1Nc1cccc(C(=O)N(C)C)c1O)c1cccc(F)c1
188 nM,16 nM,-19%,,,,CCC(C)(C)[C@@H](NC1=NS(=O)(=O)N=C1Nc1cccc(C(=O)N(C)C)c1O)c1ccco1
61 nM,9 nM,,,15 nM,8 nM,CC[C@@H](Nc1n[s+]([O-])nc1Nc1cccc(C(=O)N(C)C)c1O)c1cc(C(C)C)co1 (stereo not given in full)
,,-12%,,,,CN(C)C(=O)c1cccc(NC2=NS(=O)(=O)N=C2N[C@@H](c2ccc3c(c2)OCCO3)C(C)(C)C)c1O
2800 nM,9 nM,,,,,CC[C@@H](NC1=NS(=O)(=O)NC1=Nc1cccc(C(=O)N(C)C)c1O)c1ccc2c(c1)OCCN2C
38 nM,5 nM,,,80 nM,27 nM,Cc1ccc([C@H](Nc2n[s+]([O-])nc2Nc2cccc(C(=O)N(C)C)c2O)C(C)(C)C)o1 (stereo not given in full)
484 nM,58 nM,,5.28 µM·h,684 nM,38 nM,C[C@H](Nc1n[s+]([O-])nc1Nc1cccc(C(=O)N(C)C)c1O)C(C)(C)C (stereo not given in full)

# Further lines, the compound ahead of its results:
SMILES,Ki [1],Ki [2],Activity [3],AUC [4],IC50 [5],IC50 [6]
CC[C@@H](Nc1n[s+]([O-])nc1Nc1cccc(C(=O)N(C)C)c1O)c1ccc(C)o1 (stereo not given in full),234 nM,3 nM,,,539 nM,133 nM
Cc1ccc([C@H](NC2=NS(=O)(=O)N=C2Nc2cccc(C(=O)N(C)C)c2O)C2(C)CC2)o1,1100 nM,184 nM,-11%,,,
CC[C@@H](NC1=NS(=O)(=O)N=C1Nc1cccc(C(=O)N(C)C)c1O)c1ccc(C)o1,5950 nM,,,,,
CN(C)C(=O)c1cccc(Nc2n[s+]([O-])nc2N[C@@H](c2ccco2)C(C)(C)C)c1O (stereo not given in full),21 nM,2.3 nM,,,20 nM,8 nM
CN(C)C(=O)c1cccc(NC2=NS(=O)(=O)N=C2N[C@@H](c2ccc3c(c2)OCO3)C(C)(C)C)c1O,46 nM,4.7 nM,,,,
Cc1cc([C@H](Nc2n[s+]([O-])nc2Nc2cccc(C(=O)N(C)C)c2O)C(C)C)oc1C (stereo not given in full),,,,119 µM·h,54 nM,13 nM
CN(C)C(=O)c1cccc(NC2=NS(=O)(=O)N=C2N[C@@H](c2ccco2)C(C)(C)C)c1O,61 nM,11 nM,3%,,,
CC[C@@H](Nc1n[s+]([O-])nc1Nc1cccc(C(=O)N(C)C)c1O)c1ccccc1 (stereo not given in full),1220 nM,5 nM,,,,331 nM
CN(C)C(=O)c1cccc(Nc2n[s+]([O-])nc2N[C@@H](c2ccco2)C2(C)CC2)c1O (stereo not given in full),375 nM,12 nM,,,400 nM,132 nM
CN(C)C(=O)c1cccc(Nc2n[s+]([O-])nc2N[C@@H](c2ccccc2)C(C)(C)C)c1O (stereo not given in full),130 nM,4 nM,,,142 nM,28 nM
CC(C)[C@@H](Nc1n[s+]([O-])nc1Nc1cccc(C(=O)N(C)C)c1O)c1cccc(F)c1 (stereo not given in full),4010 nM,8 nM,,,,
CN(C)C(=O)c1cccc(N=C2NS(=O)(=O)N=C2N[C@@H](c2ccc3c(c2)OCCO3)C(C)(C)C)c1O,2000 nM,24 nM,,1.87 µM·h,,
CN(C)C(=O)c1cccc(Nc2n[s+]([O-])nc2NCc2ccc3c(c2)OCO3)c1O (stereo not given),10000 nM,15 nM,,,,
